System: Swiss 3T3 cells expressing a dominant-negative FGFR1 mutant
Assay: DNA synthesis assay, (3H)-thymidine autoradiography
Assay type: cell-based, murine
Conditions: 10 μg/ml α-thrombin
Description: A combination of (^3H)-thymidine autoradiography and immunohistochemistry was used to evaluate the levels of DNA synthesis in Swiss 3T3 cells expressing a dominant-negative FGFR1 mutant. Swiss 3T3 cells were plated at 50% confluency on glass coverslips precoated with fibronectin (10 μg/cm^2) for 24 hours. The cells were transfected with the pCS2 vector expressing a dominant-negative X. laevis FGFR1 deletion mutant lacking the FGFR1 intracellular domain (a gift from Dr. R. Friesel) using the Fugene 6 reagent (Roche). After 24 hours, the medium was changed to DMEM containing 0.25% BCS and following a 48 hour incubation in low BCS, the cells were stimulated with either 10 μg/ml of α-thrombin, 10% BCS or 10 ng/ml of recombinant FGF1 plus 10 units/ml of heparin. After stimulation for 24 hours, (^3H)-thymidine (NEN; 1 μCi/ml) was added to the medium and cells were incubated for 12 hours and fixed with 4% neutral formaldehyde. […] The percentage of (^3H)-labeled nuclei among the dnFGFR1-positive and dnFGFR1-negative cells was quantitated using an inverted Olympus microscope.
Thus, a dominant-negative (dn) FGFR1 construct was expressed in Swiss 3T3 cells and their proliferative index measured in the presence and absence of exogenous thrombin.

## Thrombin
  DNA synthesis frequency with dnFGFR1 expression: level consistent with a quiescent cellular phenotype

Reference: patent US7501281B2, “Compositions, methods and kits related to thrombin, Notch signaling and stamatogenesis and growth of stem cells” (Maine Medical Center Research Institute, priority 2003, dated 2009)
